Key:
MSI001-Amp^r bacteria = test: Growth of ampicillin-resistant MSI001 bacteria; type: cell-based, Escherichia coli; conditions: 1×10^3 CFU/ml, peptide 1 μmol/L, 37°C, 3 hours, colony count, n=3
Method: Pseudomonas aeruginosa (ATCC27853) was purchased from American Type Culture Collection (ATCC) and cultured in Luria Broth (LB) medium with shaking at 37 °C. For construction of ampicillin-resistant MSI001 strain (MSI001-Amp^r), the pET14b plasmid carrying Amp^r marker gene was introduced into the wild type MSI001 strain. The MSI001-Amp^r strain was cultured in LB medium supplemented with Ampicillin of 100 µg/ml at 37 °C.
Figure S4. Inhibitory effect of LL37 and VTK-LL37 fusion peptides on bacterial growth. a Effect of VTK-LL37 on the growth of Ampicillin resistant (Amp^r) MSI001 bacteria. The bacterial strain MSI001 was transfected with pET14b plasmid to produce an Ampicillin resistant (Amp^r) MSI001 strain. The VTK-LL37 or LL37 peptide was added to the cultured MSI001-Amp^r bacteria (1×10^3 CFU/ml) with a final concentration of 1 μmol/L. After incubation with the VTK-LL37 or LL37 peptides at 37°C for 3 hours, bacterial colonies were counted. b Effect of VTK-LL37 on the growth of Pseudomonas aeruginosa. The bacterial colonies of Pseudomonas aeruginosa were counted as above. […]

E. coli MSI001 = test: In vivo antibacterial assay (blood CFU); design: species or system C57BL/6 mice; conditions: MSI001 6 × 10^6 CFU/g i.p.; peptide 0.2 nmol/g tail vein 1 h later; blood CFU at 12 h; n = 8
Text: (§1) Wild-type C57 mice were intraperitoneally injected with MSI001 bacteria (6 × 10^6 CFU/g body weight) to reproduce a sepsis model. […] Normal saline (NS) was used as control. […] One hour after CLP modeling, the mice were intravenously injected with LL37 or VTK-LL37 peptide at a dosage of 0.2 nmol/g body weight. Equal volume of normal saline (NS) was used as control. […] The mice were intraperitoneally injected with MSI001 bacteria. One hour later, the mice were subjected to tail vein injection (TVI) with VTK-LL37 (VTK-LL37 group), LL37 (LL37 group) or an equivalent volume of NS (sepsis group). Wild-type mice without modeling were used as controls (control group). The blood bacteria were quantitated as colony forming units (CFU) 12 h after injection of bacteria. n = 8. *P < 0.05, compared to control; ^#P < 0.05, compared to sepsis group^; ΔP < 0.05, compared to LL37 group. Results are expressed as the median with range. d Suppression of VTK-LL37 on the production of HMGB1 in the blood of septic mice. […] Twelve hours after bacterial injection, HMGB1 in the serum was quantitated by ELISA. n = 8. *P < 0.05, compared to control; ^#P < 0.05, compared to sepsis group; ^ΔP < 0.05, compared to LL37 group^. Results are expressed as the mean ± SD. e, f Protective effect of VTK-LL37 against organ damage in mice subjected to bacterial injection. […]

HMGB1 = HMGB1 quantitation in serum of septic mice (ELISA); type: in vivo, C57BL/6 mice; conditions: peptide by tail vein 1 h after bacterial injection; serum ELISA at 12 h; n = 8
Text: as §1

Sequence: CVTKLGSLCVPGVGLLGDFFRKSKEKIGKEFKRIVQRIKDFLRNLVPRTES [VTK-LL37]
- inhibitive effect on growth of ampicillin-resistant MSI001 (MSI001-Amp^r bacteria): more significant inhibitive effect on the bacterial growth of the ampicillin-resistant MSI001 bacteria in comparison with LL37
- suppression of bacterial growth in blood of septic mice (E. coli MSI001): stronger capability to suppress the bacterial growth of E. coli MSI001 in the blood of septic mice than LL37
- production of HMGB1 in serum of septic mice (HMGB1): significantly suppressed the production of HMGB1 in the serum of septic mice, which was superior to LL37

Source: paper PMC9309159, “Identification of heptapeptides targeting a lethal bacterial strain in septic mice through an integrative approach” (Signal Transduction and Targeted Therapy, 2022)
